Patent US20250161308A1, “Methods of Treating Covid-Related Disorders” (priority 2022, published 2025)
Where two headings read alike, the source gives them in different places.

What was measured:
[1] = test system: patient in need of treatment for long COVID; assay: Treating long COVID (Example 1), clinical screening assessments; type: in vivo, human; details: patients with long COVID
Method: A Compound of Formula (I), such as Compound 2a or Compound 1a, or a pharmaceutically acceptable salt thereof, is administered orally to a patient in need of treatment for long COVID.
In some embodiments, a patient in need of treatment for long COVID is assessed with ADCS-ADL23. The ADCS-ADL23 (Galasko, 1997) is a 23-item assessment of functional impairment in terms of activities of daily living administered to the support person/caregiver. It comprises 23 questions about the subject's involvement and level of performance across items representing daily living. The questions range from basic to instrumental activities of daily living. Each item is rated from the highest level of independent performance to complete loss. The total score range is from 0 to 78, with lower scores indicating greater functional impairment.
A patient in need of treatment for long COVID is assessed with ERP P300. ERP P300 is a quantitative, unbiased, non-invasive method of recording task-related brain processing speed, elicited by external stimuli, e.g., an oddball auditory stimulus, and is a well-established functional biomarker, particularly of working memory access (Ally, 2006). ERP P300 is characterized by a stereotyped series of voltage deflections occurring after the respective odd tone to be counted, with early features (<100 msec) corresponding to unconscious sensory transmission (auditory cortex, N100), and later features produced by cognitive processing in the ventral attentional network, i.e., P300, referring to the large positive deflection at roughly 300 msec in healthy adults (young or elderly). The P300 latency is sensitive to detecting reduced synaptic transmission related to cognitive decline in AD patients and other dementias (Olichney, 2011).

[2] = test system: Rat primary cortical neuron cultures; type: cell-based; details: for Significance of neuroprotection vs 1 uM LPS: 24 h LPS
[3] = test system: Rat hippocampal neurons; assay: Neurite outgrowth assay; type: cell-based; details: for Significant increase in: Neurite length: Table 4 study
[4] = test system: Rat hippocampal neurons; assay: Synaptogenesis assay; type: cell-based; details: for Significant increase in: Synapses: Table 4 study
[5] = test system: LPS-induced cognitive deficit in CD-1 mice; assay: Rodent LPS model of brain inflammation, T-maze spontaneous alternation; type: in vivo, mouse; details: for Recovery (%) / Spontaneous alternation (%) Mean: LPS 250 μg/kg
[6] = test system: THP1-differentiated macrophages; type: cell-based, human; set-up: key to Significant reduction in IL-6 / Significant reduction in TNF-α / Significant reduction in IL-1β: NS: indicates a non-significant reduction in the indicated cytokine; +: indicates a p value<0.05 in Tukey post test; ++: indicates a p value<0.01 in Tukey post test; details: for Significant reduction in IL-1β / Significant reduction in IL-6 / Significant reduction in TNF-α: 24 hrs LPS
[7] = test system: bleomycin-induced pulmonary fibrosis in C57BL/6 mice; assay: Bleomycin-induced pulmonary fibrosis; type: in vivo, mouse; details: for TGF-Beta, improvement versus disease control / Collagen, improvement versus disease control / Hydroxyproline, improvement versus disease control: right lung homogenate
[8] = test system: pulmonary LPS-stimulated rats; assay: Immune cell infiltration in BALF, LPS acute pulmonary inflammation; type: in vivo, rat
[9] = test system: pulmonary LPS-stimulated rats; assay: Cytokine expression in BALF supernatant (multiplex immunoassay), LPS acute pulmonary inflammation; type: in vivo, rat; details: any dose, p<0.05 vs LPS-only animals
[10] = test system: chemically-induced spatial memory deficits in rats; assay: Scopolamine-induced spatial memory deficit, Morris water maze (2 mg/kg scopolamine, 5 days); type: in vivo, rat
Method: Exemplary compound 1a was evaluated for its ability to reverse chemically-induced spatial memory deficits in rats in the Morris water maze. The water maze consists of a large round tank (diameter 1.5 m) filled with 23-26° C. water to a depth of ˜30 cm and the water was clouded with white paint. A round platform was fixed such that it rested 2-3 cm below the surface of the water. High-contrast visual cues were placed around the tank to aid spatial orientation of test animals. Testing consisted of placing an animal into the water facing the tank wall at one of three randomly assigned starting locations and allowing the animal to swim and search for the hidden platform for up to 90 seconds. The time taken for the animal to locate the platform was recorded as the escape latency. Animals were tested 5 times per day with a 30 second rest period between trials. Testing was completed for a total of 5 consecutive days.
Animals were divided into groups (N=12 per group) depending on treatment. Control animals received only empty vehicle. Scopolamine groups received 2 mg/kg scopolamine dissolved in sterile saline by intraperitoneal (IP) injection 30 minutes prior to testing. Test compound groups received test compound at various concentrations by oral gavage (PO) dissolved in 78% sterile saline, 20% polyethylene glycol (PEG-400), and 2% DMSO 40 minutes prior to testing. Escape latencies were recorded for each animal for 5 trials each day for 5 consecutive days. Changes in escape latency curves were statistically analyzed by 2-way ANOVA with Bonferoni post-test.

## CCC(C)CN1CC2N(C(=O)c3ccc(C(F)(F)F)cc3)CCC(=O)N2[C@@H](C)C1=O (stereo partly drawn) [Compound 1a]
[1]
  patient outcome as measured by one or more of the screening assessments: reduces the rate of decline, stabilizes, or improves patient outcome
  safety and tolerability: acceptable safety and tolerability
[2]; 0.1 nM
  Significance of neuroprotection vs 1 uM LPS: +++ (+++ indicates p<0.001)
[2]; 1 nM
  Significance of neuroprotection vs 1 uM LPS: +++ (+++ indicates p<0.001)
[2]; 10 nM
  Significance of neuroprotection vs 1 uM LPS: +++ (+++ indicates p<0.001)
[2]; 100 nM
  Significance of neuroprotection vs 1 uM LPS: +++ (+++ indicates p<0.001)
[2]; 1 μM
  Significance of neuroprotection vs 1 uM LPS: +++ (+++ indicates p<0.001)
[2]; at at least one dose tested
  protection of primary neurons from LPS-stimulated inflammatory toxicity: protected primary neurons from LPS-stimulated inflammatory toxicity
[3]
  neurite length / extension of neurites (in words): increase both measures at all doses tested
[3]; 1 nM
  Significant increase in: Neurite length: ++++ (++++ = p < 0.0001)
[3]; 10 nM
  Significant increase in: Neurite length: ++++ (++++ = p < 0.0001)
[3]; 100 nM
  Significant increase in: Neurite length: + (+ = p < 0.05)
[4]
  synapse counts (in words): increase both measures at all doses tested
[4]; 1 nM
  Significant increase in: Synapses: ++++ (++++ = p < 0.0001)
[4]; 10 nM
  Significant increase in: Synapses: ++++ (++++ = p < 0.0001)
[4]; 100 nM
  Significant increase in: Synapses: ++++ (++++ = p < 0.0001)
[5]; 0.5 mg/kg p.o. 14 days
  Recovery (%): 17%
  Spontaneous alternation (%) Mean: 49%
[5]; 0.5 mg/kg p.o. 14 days, listed as Cmpd la
  Spontaneous alternation (%) Mean: 48.6%
[5]; 2 mg/kg p.o. 14 days
  Recovery (%): 56%
  Spontaneous alternation (%) Mean: 59%
[5]; 2 mg/kg p.o. 14 days, listed as Cmpd la
  Spontaneous alternation (%) Mean: 58.6%
[5]; 8 mg/kg p.o. 14 days
  Recovery (%): 47%
  Spontaneous alternation (%) Mean: 56%
[5]; 8 mg/kg p.o. 14 days, listed as Cmpd la
  Spontaneous alternation (%) Mean: 56.4%
[5]; 16 mg/kg p.o. 14 days
  Recovery (%): 28%
  Spontaneous alternation (%) Mean: 51%
[5]; 16 mg/kg p.o. 14 days, listed as Cmpd la
  Spontaneous alternation (%) Mean: 51.4%
[5]; 32 mg/kg p.o. 14 days
  Recovery (%): 44%
  Spontaneous alternation (%) Mean: 56%
[5]; 32 mg/kg p.o. 14 days, listed as Cmpd la
  Spontaneous alternation (%) Mean: 55.7%
[5]; T-maze
  significance of reversal of LPS-induced cognitive deficit (in words): significant reversal of LPS-induced cognitive deficits at 2 mg/kg
[6]; 0.1 nM
  Significant reduction in IL-1β: ++ (indicates a p value<0.01 in Tukey post test)
  Significant reduction in IL-6: NS
  Significant reduction in TNF-α: ++ (indicates a p value<0.01 in Tukey post test)
[6]; 10 nM
  Significant reduction in IL-1β: ++ (indicates a p value<0.01 in Tukey post test)
  Significant reduction in IL-6: ++ (indicates a p value<0.01 in Tukey post test)
  Significant reduction in TNF-α: ++ (indicates a p value<0.01 in Tukey post test)
[6]; 1000 nM
  Significant reduction in IL-1β: ++ (indicates a p value<0.01 in Tukey post test)
  Significant reduction in IL-6: + (indicates a p value<0.05 in Tukey post test)
  Significant reduction in TNF-α: ++ (indicates a p value<0.01 in Tukey post test)
[6]; at at least one tested dose
  expression of IL-1β (in words): significantly reduced the expression of IL-1β and TNF-α
  expression of IL-6 (in words): significantly reduced the expression of IL-6
  expression of TNF-α (in words): significantly reduced the expression of IL-1β and TNF-α
[7]; 0.2 mg/kg po QD
  TGF-Beta, improvement versus disease control: +++ (+++ => 51-100% improvement v disease control)
[7]; 0.8 mg/kg
  weight loss compared to the other treatment groups: slightly greater weight loss
[7]; 0.8 mg/kg po QD, day 21
  Right Lung Weight, improvement versus disease control: + (+ => 5-25% improvement v disease control)
[7]; 0.8 mg/kg po QD
  Collagen, improvement versus disease control: + (+ => 5-25% improvement v disease control)
  TGF-Beta, improvement versus disease control: +++ (+++ => 51-100% improvement v disease control)
[7]; 2 mg/kg
  collagen in right lung homogenate versus pirfenidone (in words): about the same levels of collagen
[7]; 2 mg/kg po QD, day 21
  Right Lung Weight, improvement versus disease control: + (+ => 5-25% improvement v disease control)
[7]; 2 mg/kg po QD
  Collagen, improvement versus disease control: ++ (++ => 26-50% improvement v disease control)
  Hydroxyproline, improvement versus disease control: ++ (++ => 26-50% improvement v disease control)
  TGF-Beta, improvement versus disease control: +++ (+++ => 51-100% improvement v disease control)
[7]; 8 mg/kg
  collagen concentration in right lung homogenates (in words): reduced compared to the pirfenidone positive control
[7]; 8 mg/kg and 2 mg/kg
  hydroxyproline concentration in right lung homogenates (in words): lower concentrations of hydroxyproline
[7]; 8 mg/kg po QD, day 21
  Right Lung Weight, improvement versus disease control: ++ (++ => 26-50% improvement v disease control)
[7]; 8 mg/kg po QD
  Hydroxyproline, improvement versus disease control: + (+ => 5-25% improvement v disease control)
  TGF-Beta, improvement versus disease control: + (+ => 5-25% improvement v disease control)
[7]; all doses, day 21
  protection against bleomycin-induced increases in TGF-β (in words): significantly protected against bleomycin-induced increases in TGF-β
[7]; all treatment groups
  protection against body weight loss (in words): did not protect against body weight loss
[7]; mouse, in vivo
  activity in treating pulmonary fibrosis in the model: active in treating pulmonary fibrosis
[8]; 0.0075 mg/kg IV
  Neutrophils in BALF, reduction vs disease control: ++ (++ = >25% reduction in cell count vs disease control)
  Total Leukocytes in BALF, reduction vs disease control: ++ (++ = >25% reduction in cell count vs disease control)
[8]; 0.075 mg/kg IV
  Neutrophils in BALF, reduction vs disease control: + (+ = >5% reduction in cell count vs disease control)
  Total Leukocytes in BALF, reduction vs disease control: + (+ = >5% reduction in cell count vs disease control)
[8]; rat, in vivo
  neutrophil counts compared to LPS-only controls (in words): reduced both total leukocyte counts and neutrophil counts
  total leukocyte counts compared to LPS-only controls (in words): reduced both total leukocyte counts and neutrophil counts
[9]
  cytokines with significant changes in expression in BALF supernatant (list): G-CSF, CXCL2, CXCL10, IFN-γ, and IL-1β
[10]; 0.5 mg/kg PO
  Cognitive Improvement: + (+ indicates post-test p-value between 0.06 and 0.05)
[10]; 2 mg/kg PO
  Cognitive Improvement: − (− indicates post-test p-value above 0.06)
[10]; 8 mg/kg PO
  Cognitive Improvement: − (− indicates post-test p-value above 0.06)
